According to patent US9409905B2, “Antibacterial compounds and methods for use” (PTC THERAPEUTICS, INC., priority 2011, dated 2016):
≈ marks a conversion by molar mass, not a printed value.

Tests used:
A. baumannii MXX2240 = assay: Antibacterial activity, MIC, resistant strain (Table 4); assay type: cell-based; settings: Acinetobacter baumannii, MXX2240; resistant A. baumannii MMX2240, multi-drug resistant clinical isolate; read-out: MIC, MMX2240
Outline: (§1)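 The resistant panel comprises multi-drug resistant clinical isolates. All strains were tested by microbroth dilution, with the MIC in μg/mL taken as the lowest concentration that prevented macroscopically visible growth.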

K. pneumoniae MXX1232 = assay: as above; assay type: cell-based; settings: Klebsiella pneumoniae, MXX1232; resistant K. pneumoniae MMX1232, multi-drug resistant clinical isolate; read-out: MIC, MMX1232
Outline: as §1

[1] = system: Neisseria meningitidis (N. meningitidis) 13090; assay: Antibacterial activity, MIC (Table 8); assay type: cell-based
From the text: The antibacterial activity from a microbroth dilution method may be presented as the minimum inhibitory concentration (MIC in μg/mL). The MIC value is the lowest concentration of drug which prevents macroscopically visible growth under test conditions.
Antibacterial activity of test compounds against the Gram-negative bacteria Haemophilus influenzae (H. influenzae) 49247 is shown in Table 6, Moraxella catarrhalis (M. catarrhalis) 25238 is shown in Table 7 and Neisseria meningitidis (N. meningitidis) 13090 is shown in Table 8.

[2] = system: Klebsiella pneumoniae (K. pneumoniae) 35657; assay: Antibacterial activity, MIC (Table 4); assay type: cell-based; settings: K. pneumoniae 35657, read-out: MIC, 35657
Outline: as §1

[3] = system: Acinetobacter baumannii (A. baumannii) BAA747; assay: Antibacterial activity, MIC (Table 4); assay type: cell-based; settings: A. baumannii BAA747, read-out: MIC, BAA747
Outline: as §1

E. coli ELZ4251 = assay: Antibacterial activity, MIC, multi-drug resistant clinical isolate (Table 3); assay type: cell-based; settings: Escherichia coli
Outline: (§2)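 Growth inhibition is measured by microbroth dilution, and the minimum inhibitory concentration in μg/mL corresponds to the lowest drug level that prevents visible bacterial growth.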

E. coli ELZ4000 = assay: as above; assay type: cell-based; settings: Escherichia coli, ELZ4000, read-out: MIC ELZ4000
Outline: as §2

E. coli LZ3111 = assay: Antibacterial activity, MIC, quinolone resistant strain (Table 2); assay type: cell-based; settings: Escherichia coli, LZ3111, read-out: MIC LZ3111
Outline: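 Lowest concentration giving no macroscopically visible growth was taken as the MIC (μg/mL) after microbroth dilution testing.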

[4] = system: Staphylococcus aureus (S. aureus) 29213; assay: Antibacterial activity, microbroth dilution MIC (Table 1); assay type: cell-based; settings: microbroth dilution, Gram-positive S. aureus 29213, read-out: MIC, 29213
Outline: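 Microbroth dilution was used. MIC, in μg/mL, is the lowest drug concentration preventing macroscopically visible growth under the test conditions.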

[5] = system: Escherichia coli (E. coli) BAS849; assay: as above; assay type: cell-based; settings: microbroth dilution, super sensitive Gram-negative E. coli BAS849, read-out: MIC, BAS849
Outline: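 Lowest concentration stopping macroscopically visible growth under test conditions, by broth microdilution, defines the MIC (μg/mL).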

[6] = system: Pseudomonas aeruginosa (P. aeruginosa) 27853; assay: Antibacterial activity, MIC (Table 5); assay type: cell-based; settings: P. aeruginosa 27853, read-out: MIC, 27853
Outline: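 MIC in μg/mL from broth microdilution; endpoint is the lowest drug level giving no visible growth.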

E. coli 25922 = assay: Antibacterial activity, microbroth dilution MIC (Table 1); assay type: cell-based, Escherichia coli; settings: Escherichia coli; microbroth dilution; control Gram-negative E. coli 25922 strain; read-out: MIC, 25922
Outline: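 Using broth microdilution, MIC endpoints (μg/mL) mark where visible growth no longer appears; the panel spans sensitive and control Gram-negative strains plus a Gram-positive strain.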

| SMILES | MIC (A. baumannii MXX2240) | MIC (K. pneumoniae MXX1232) | MIC [1] | MIC [2] | MIC [3] | MIC (E. coli ELZ4251) | MIC (E. coli ELZ4000) | MIC (E. coli LZ3111) | MIC [4] | MIC [5] | MIC [6] | MIC (E. coli 25922) |
| --- | --- | --- | --- | --- | --- | --- | --- | --- | --- | --- | --- | --- |
| CCc1cc(C(=O)O)c(=O)[nH]c1-c1ccc2c(c1)cc(CN(C)C)n2C [Cpd 122, 6-(2-((dimethylamino)methyl)-1-methyl-1H-indol-5-yl)-5-ethyl-2-oxo-1,2-dihydropyridine-3-carboxylic acid] | 12.5 to 150 µg/mL (≈ 35.4 to 424 µM) | 12.5 to 150 µg/mL (≈ 35.4 to 424 µM) | < 1 µg/mL | < 1 µg/mL | < 1 µg/mL | 12.5 to 150 µg/mL (≈ 35.4 to 424 µM) | 12.5 to 150 µg/mL (≈ 35.4 to 424 µM) | 12.5 to 150 µg/mL (≈ 35.4 to 424 µM) | 12.5 to 150 µg/mL (≈ 35.4 to 424 µM) | < 1 µg/mL | 3.5 to 12.5 µg/mL (≈ 9.9 to 35.4 µM) | < 1 µg/mL |
| CCc1cc(C(=O)O)c(=O)[nH]c1-c1ccc2c(c1)cc(CN1CCCC1)n2C [Cpd 124, 5-ethyl-6-(1-methyl-2-(pyrrolidin-1-ylmethyl)-1H-indol-5-yl)-2-oxo-1,2-dihydropyridine-3-carboxylic acid] | 12.5 to 150 µg/mL (≈ 32.9 to 395 µM) | 12.5 to 150 µg/mL (≈ 32.9 to 395 µM) | < 1 µg/mL | 1 to 3.5 µg/mL (≈ 2.64 to 9.22 µM) | < 1 µg/mL | 12.5 to 150 µg/mL (≈ 32.9 to 395 µM) | 12.5 to 150 µg/mL (≈ 32.9 to 395 µM) | 12.5 to 150 µg/mL (≈ 32.9 to 395 µM) | 12.5 to 150 µg/mL (≈ 32.9 to 395 µM) | < 1 µg/mL | 3.5 to 12.5 µg/mL (≈ 9.22 to 32.9 µM) | < 1 µg/mL |
| CCc1cc(C(=O)O)c(=O)[nH]c1-c1ccc2c(c1)cc(CN1CCCC1C)n2C (stereo not shown) [Cpd 130, 5-ethyl-6-(1-methyl-2-((2-methylpyrrolidin-1-yl)methyl)-1H-indol-5-yl)-2-oxo-1,2-dihydropyridine-3-carboxylic acid] | 12.5 to 150 µg/mL (≈ 31.8 to 381 µM) | 12.5 to 150 µg/mL (≈ 31.8 to 381 µM) | – | < 1 µg/mL | 1 to 3.5 µg/mL (≈ 2.54 to 8.89 µM) | 12.5 to 150 µg/mL (≈ 31.8 to 381 µM) | 12.5 to 150 µg/mL (≈ 31.8 to 381 µM) | 12.5 to 150 µg/mL (≈ 31.8 to 381 µM) | 12.5 to 150 µg/mL (≈ 31.8 to 381 µM) | < 1 µg/mL | 12.5 to 150 µg/mL (≈ 31.8 to 381 µM) | < 1 µg/mL |
| CCc1cc(C(=O)O)c(=O)[nH]c1-c1ccc2c(c1)cc(CN1CCC[C@@H]1CO)n2C [Cpd 132, (R)-5-ethyl-6-(2-((2-(hydroxymethyl)pyrrolidin-1-yl)methyl)-1-methyl-1H-indol-5-yl)-2-oxo-1,2-dihydropyridine-3-carboxylic acid] | 12.5 to 150 µg/mL (≈ 30.5 to 366 µM) | 12.5 to 150 µg/mL (≈ 30.5 to 366 µM) | – | < 1 µg/mL | 3.5 to 12.5 µg/mL (≈ 8.55 to 30.5 µM) | 12.5 to 150 µg/mL (≈ 30.5 to 366 µM) | 12.5 to 150 µg/mL (≈ 30.5 to 366 µM) | 12.5 to 150 µg/mL (≈ 30.5 to 366 µM) | 12.5 to 150 µg/mL (≈ 30.5 to 366 µM) | < 1 µg/mL | 12.5 to 150 µg/mL (≈ 30.5 to 366 µM) | < 1 µg/mL |
| CCc1cc(C(=O)O)c(=O)[nH]c1-c1ccc2c(c1)cc(CN1CCCCC1)n2C [Cpd 133, 5-ethyl-6-(1-methyl-2-(piperidin-1-ylmethyl)-1H-indol-5-yl)-2-oxo-1,2-dihydropyridine-3-carboxylic acid] | 12.5 to 150 µg/mL (≈ 31.8 to 381 µM) | 12.5 to 150 µg/mL (≈ 31.8 to 381 µM) | – | < 1 µg/mL | 1 to 3.5 µg/mL (≈ 2.54 to 8.89 µM) | 12.5 to 150 µg/mL (≈ 31.8 to 381 µM) | 12.5 to 150 µg/mL (≈ 31.8 to 381 µM) | 12.5 to 150 µg/mL (≈ 31.8 to 381 µM) | 12.5 to 150 µg/mL (≈ 31.8 to 381 µM) | < 1 µg/mL | 12.5 to 150 µg/mL (≈ 31.8 to 381 µM) | < 1 µg/mL |
| CCc1cc(C(=O)O)c(=O)[nH]c1-c1ccc2c(c1)cc1n2CCC1N(C)C (stereo not shown) [Cpd 152, 6-(1-(dimethylamino)-2,3-dihydro-1H-pyrrolo[1,2-a]indol-7-yl)-5-ethyl-2-oxo-1,2-dihydropyridine-3-carboxylic acid] | 12.5 to 150 µg/mL (≈ 34.2 to 410 µM) | 12.5 to 150 µg/mL (≈ 34.2 to 410 µM) | – | < 1 µg/mL | 3.5 to 12.5 µg/mL (≈ 9.58 to 34.2 µM) | 12.5 to 150 µg/mL (≈ 34.2 to 410 µM) | 12.5 to 150 µg/mL (≈ 34.2 to 410 µM) | 12.5 to 150 µg/mL (≈ 34.2 to 410 µM) | 12.5 to 150 µg/mL (≈ 34.2 to 410 µM) | < 1 µg/mL | 12.5 to 150 µg/mL (≈ 34.2 to 410 µM) | < 1 µg/mL |
| CCc1cc(C(=O)O)c(=O)[nH]c1-c1ccc2c(c1)cc(CCN1CCCC1)n2C [Cpd 159, 5-ethyl-6-(1-methyl-2-(2-(pyrrolidin-1-yl)ethyl)-1H-indol-5-yl)-2-oxo-1,2-dihydropyridine-3-carboxylic acid] | 12.5 to 150 µg/mL (≈ 31.8 to 381 µM) | 12.5 to 150 µg/mL (≈ 31.8 to 381 µM) | – | < 1 µg/mL | 3.5 to 12.5 µg/mL (≈ 8.89 to 31.8 µM) | 12.5 to 150 µg/mL (≈ 31.8 to 381 µM) | 12.5 to 150 µg/mL (≈ 31.8 to 381 µM) | 12.5 to 150 µg/mL (≈ 31.8 to 381 µM) | 12.5 to 150 µg/mL (≈ 31.8 to 381 µM) | < 1 µg/mL | 3.5 to 12.5 µg/mL (≈ 8.89 to 31.8 µM) | < 1 µg/mL |
